Reference: ChEMBL document CHEMBL1221176, “Actin microfilament aggregation induced by withaferin A is mediated by annexin II” (Nat Chem Biol, 2006)
Activity calls are given as the source filed them.

What was measured:
Annexin A2 (Bos taurus) [1] = target: Annexin A2 (Bos taurus) (UniProt P04272); test: Displacement of biotinyl-withaferin from bovine lung annexin-2 at 0.4 uM by chemiluminescence assay
Annexin A2 (Bos taurus) [2] = target: Annexin A2 (Bos taurus) (UniProt P04272); test: Displacement of biotinyl-withaferin from bovine lung annexin-2 at 4 uM by chemiluminescence assay
Annexin A2 (Bos taurus) [3] = target: Annexin A2 (Bos taurus) (UniProt P04272); test: Displacement of biotinyl-withaferin from bovine lung annexin-2 at 40 uM by chemiluminescence assay
Annexin A1 (Bos taurus) = target: T1, Annexin A1 (Bos taurus) (UniProt P46193); test: Displacement of biotinyl-withaferin from bovine lung annexin 1 at 10 uM by chemiluminescence assay
T1 sequence (whole entry): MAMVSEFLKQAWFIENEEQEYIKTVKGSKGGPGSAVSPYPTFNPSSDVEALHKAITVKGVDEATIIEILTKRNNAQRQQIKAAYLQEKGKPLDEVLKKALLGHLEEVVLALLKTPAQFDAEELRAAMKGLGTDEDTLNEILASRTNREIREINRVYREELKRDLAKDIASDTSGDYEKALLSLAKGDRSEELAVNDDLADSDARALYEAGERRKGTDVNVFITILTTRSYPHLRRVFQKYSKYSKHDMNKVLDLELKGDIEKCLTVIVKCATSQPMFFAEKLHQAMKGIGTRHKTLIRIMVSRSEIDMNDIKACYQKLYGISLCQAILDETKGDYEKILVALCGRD

Annexin A2 (Bos taurus) [4] = target: Annexin A2 (Bos taurus) (UniProt P04272); test: Displacement of biotinyl-withaferin from bovine lung annexin 2 at 10 uM by chemiluminescence assay
Annexin A5 (Bos taurus) = target: T2, Annexin A5 (Bos taurus) (UniProt P81287); test: Displacement of biotinyl-withaferin from bovine lung annexin 5 at 10 uM by chemiluminescence assay
T2 sequence (whole entry): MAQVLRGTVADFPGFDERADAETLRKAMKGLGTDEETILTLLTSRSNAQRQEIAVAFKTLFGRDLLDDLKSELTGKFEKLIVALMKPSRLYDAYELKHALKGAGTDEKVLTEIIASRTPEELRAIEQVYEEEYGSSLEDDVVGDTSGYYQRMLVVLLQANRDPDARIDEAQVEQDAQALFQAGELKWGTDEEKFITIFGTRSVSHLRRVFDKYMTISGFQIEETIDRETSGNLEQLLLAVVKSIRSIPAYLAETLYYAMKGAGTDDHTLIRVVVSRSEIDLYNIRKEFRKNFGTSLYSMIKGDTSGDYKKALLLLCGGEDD

Annexin A4 (Bos taurus) = target: T3, Annexin A4 (Bos taurus) (UniProt P13214); test: Displacement of biotinyl-withaferin from bovine lung annexin 4 at 10 uM by chemiluminescence assay
T3 sequence (whole entry): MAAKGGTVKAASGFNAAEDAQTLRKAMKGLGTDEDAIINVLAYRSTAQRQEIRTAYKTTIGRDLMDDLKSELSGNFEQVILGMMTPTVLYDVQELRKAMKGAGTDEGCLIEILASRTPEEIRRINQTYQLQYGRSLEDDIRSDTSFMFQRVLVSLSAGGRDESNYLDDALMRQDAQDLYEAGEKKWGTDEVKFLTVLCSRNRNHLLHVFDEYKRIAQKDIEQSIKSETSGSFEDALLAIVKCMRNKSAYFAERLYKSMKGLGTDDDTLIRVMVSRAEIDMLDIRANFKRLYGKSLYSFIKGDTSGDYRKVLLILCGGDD

Annexin A6 (Bos taurus) = target: T4, Annexin A6 (Bos taurus) (UniProt P79134); test: Displacement of biotinyl-withaferin from bovine lung annexin 6 at 10 uM by chemiluminescence assay
T4 sequence (whole entry): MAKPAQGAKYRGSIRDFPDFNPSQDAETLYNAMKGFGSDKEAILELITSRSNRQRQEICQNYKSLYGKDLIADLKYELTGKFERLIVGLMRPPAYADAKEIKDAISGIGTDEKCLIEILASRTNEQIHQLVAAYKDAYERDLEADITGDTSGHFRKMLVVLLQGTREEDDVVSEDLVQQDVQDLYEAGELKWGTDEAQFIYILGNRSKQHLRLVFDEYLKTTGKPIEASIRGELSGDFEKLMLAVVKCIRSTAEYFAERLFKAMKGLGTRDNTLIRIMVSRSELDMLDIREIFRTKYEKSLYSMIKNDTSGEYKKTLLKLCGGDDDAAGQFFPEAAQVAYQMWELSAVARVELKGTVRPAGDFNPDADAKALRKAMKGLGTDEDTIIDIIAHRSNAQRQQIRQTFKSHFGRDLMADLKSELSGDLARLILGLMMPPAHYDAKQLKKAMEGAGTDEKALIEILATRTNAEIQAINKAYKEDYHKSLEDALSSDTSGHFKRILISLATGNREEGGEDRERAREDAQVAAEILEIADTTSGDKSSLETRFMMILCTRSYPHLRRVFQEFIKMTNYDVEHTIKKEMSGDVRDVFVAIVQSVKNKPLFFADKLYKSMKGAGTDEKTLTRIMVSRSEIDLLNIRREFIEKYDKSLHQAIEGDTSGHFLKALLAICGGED

[5] = target: Annexin A2 (Homo sapiens) (UniProt P07355); test: Binding affinity to annexin 2 assessed as inhibition of protein-lipid interaction after 15 mins by coomassine blue staining
Target sequence in this assay (P07355 whole entry): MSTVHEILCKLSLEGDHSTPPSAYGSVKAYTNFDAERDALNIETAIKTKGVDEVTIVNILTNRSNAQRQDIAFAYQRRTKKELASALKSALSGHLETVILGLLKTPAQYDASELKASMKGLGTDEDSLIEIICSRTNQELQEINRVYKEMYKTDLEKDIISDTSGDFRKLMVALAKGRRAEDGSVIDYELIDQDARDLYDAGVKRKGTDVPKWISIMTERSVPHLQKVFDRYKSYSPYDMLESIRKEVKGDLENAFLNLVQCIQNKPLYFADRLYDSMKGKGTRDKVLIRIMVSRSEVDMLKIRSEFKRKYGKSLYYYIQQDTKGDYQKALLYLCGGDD

[6] = target: Annexin A2 (Homo sapiens) (UniProt P07355); test: Inhibition of annexin 2-mediated liposome aggregation after 15 mins by spectrophotometry
Target sequence in this assay (P07355 whole entry): as above

[7] = target: Annexin A2 (Homo sapiens) (UniProt P07355); test: Effect on human annexin 2-mediated F-actin bundling assessed as increase in light scattering after 1 hr by SDS-PAGE
Target sequence in this assay (P07355 whole entry): as above

[8] = target: Annexin A2 (Homo sapiens) (UniProt P07355); test: Induction of annexin 2-mediated F-actin disruption in human WI38 cells at 4 uM after 2 hrs by confocal laser scanning microscopy; type: cell-based; details: WI-38
Target sequence in this assay (P07355 whole entry): as above

[9] = target: Annexin A2 (Homo sapiens) (UniProt P07355); test: Induction of annexin 2-mediated F-actin disruption in human HepG2 cells at 4 uM after 2 hrs by confocal laser scanning microscopy; type: cell-based
Target sequence in this assay (P07355 whole entry): as above

[10] = target: Annexin A2 (Homo sapiens) (UniProt P07355); test: Induction of annexin 2-mediated cytoskeleton aggregate accumulation in human HepG2 cells at 4 uM after 2 hrs by confocal laser scanning microscopy; type: cell-based
Target sequence in this assay (P07355 whole entry): as above

HepG2 [11] = test: Cytotoxicity against human HepG2 cells harboring annexin 2 after 48 hrs by MTT assay; type: functional, cell-based
WI-38 [12] = test: Cytotoxicity against human WI38 cells assessed as cell viability pretreated after 16 hrs by MTT assay in presence of 0.5 uM cytochalasin B; type: functional, cell-based
WI-38 [13] = test: Cytotoxicity against human WI38 cells assessed as cell viability pretreated after 16 hrs by MTT assay in presence of 1 uM cytochalasin B; type: functional, cell-based
PC-3M = test: Cytotoxicity against human PC3M cells assessed as viable cell after 24 hrs by MTT assay; type: functional, cell-based
HepG2 [14] = test: Cytotoxicity against human HepG2 cells harboring annexin 2 assessed as rapid shape change and rounding up at 4 uM after 2 hrs; type: functional, cell-based
[15] = target: Annexin A2 (Homo sapiens) (UniProt P07355); test: Displacement of biotinyl-withaferin from annexin-2 in human MCF10A at 0.4 to 4 uM by chemiluminescence assay
[16] = target: Annexin A2 (Homo sapiens) (UniProt P07355); test: Displacement of biotinyl-withaferin from annexin-2 in human CHP100 at 0.4 to 4 uM by chemiluminescence assay
Homo sapiens [17] = organism: Homo sapiens; test: Effect on human F-actin bundling assessed as light scattering after 1 hr by SDS-PAGE
Homo sapiens [18] = organism: Homo sapiens; test: Effect on human F-actin pellet formation after 1 hr by SDS-PAGE
CHP100 = test: Cytotoxicity against human CHP100 cells assessed as viable cell after 24 hrs by MTT assay; type: functional, cell-based
[19] = target: Annexin A2 (Homo sapiens) (UniProt P07355); test: Induction of annexin-2-mediated cytotoxicity in human MCF10A cells assessed as cell morphology at 4 uM after 2 hrs by scanning electron microscopy; details: MCF-10A
Target sequence in this assay (P07355 whole entry, looked up): as the sequence (P07355 whole entry) above

[20] = target: Annexin A2 (Homo sapiens) (UniProt P07355); test: Induction of annexin-2-mediated cytotoxicity in human CHP100 cells at 4 uM after 2 hrs by MTT assay; type: cell-based

Sequence of Annexin A2 (Bos taurus) (P04272 whole entry): as the sequence (P07355 whole entry) above, with A66E, I160V, P223C, D230E, R245K, R309K counted along it

CC1=C(CO)C(=O)O[C@@H]([C@@H](C)[C@H]2CC[C@H]3[C@@H]4C[C@H]5O[C@]56[C@@H](O)C=CC(=O)[C@]6(C)[C@H]4CC[C@]23C)C1
inactive: Activity (Annexin A1 (Bos taurus)) | Activity (Annexin A5 (Bos taurus)) | Activity (Annexin A4 (Bos taurus)) | Activity (Annexin A6 (Bos taurus)) | Activity [5] | inhibition [6] | Activity (WI-38 [12]) | Activity (WI-38 [13]) | Activity (Homo sapiens [17]) | Activity (Homo sapiens [18]) | Activity [19]
active: Activity (Annexin A2 (Bos taurus) [1]) | Activity (Annexin A2 (Bos taurus) [2]) | Activity (Annexin A2 (Bos taurus) [3]) | Activity (Annexin A2 (Bos taurus) [4]) | Activity [7] | Activity [8] | Activity [9] | Activity [10] | Activity (HepG2 [11]) Toxic | Activity (PC-3M) | Activity (HepG2 [14]) | Activity [15] | Activity [16] | Activity (CHP100)

CC1=C(C)C(=O)O[C@H]([C@](C)(O)[C@H]2CC[C@H]3[C@@H]4C[C@H]5O[C@]56[C@@H](O)C=CC(=O)[C@]6(C)[C@H]4CC[C@]23C)C1
inactive: Activity [20] | Activity (Annexin A2 (Bos taurus) [3]) | Activity [19]

CCN1C(=O)C=CC1=O
active: Activity [5] | inhibition [6]
